Patent publication US10428080B2, “TBK/IKK inhibitor compounds and uses thereof” (Merck Patent GmbH, priority 2015, dated 2019)

What was measured:
[1] = test system: phosphorylation of the IRF-3 protein in MDA-MB-468 cells; test: pIRF3 immunocytochemistry cell based assay; conditions: Homo sapiens; MDA-MB-468 cells, Poly(I:C) stimulation; read-out: pIRF3 IC50
In short: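 After 2 h stimulation with Poly(I:C) (10 ug/ml), following 1 h compound pre-treatment (10-point, 3-fold dilution, top 10 uM), MDA-MB-468 cells were fixed and stained with anti-pIRF3 antibody. pIRF3 fluorescence was normalized to PI staining or cell count on an Acumen cytometer. IC50 curves were derived from this.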

TBK1 = molecular target: T1, TBK1 (Homo sapiens, UniProt Q9UHD2); test: TBK Biochemical Assay; conditions: read-out: TBK1 IC50
T1 sequence (Q9UHD2 1-729): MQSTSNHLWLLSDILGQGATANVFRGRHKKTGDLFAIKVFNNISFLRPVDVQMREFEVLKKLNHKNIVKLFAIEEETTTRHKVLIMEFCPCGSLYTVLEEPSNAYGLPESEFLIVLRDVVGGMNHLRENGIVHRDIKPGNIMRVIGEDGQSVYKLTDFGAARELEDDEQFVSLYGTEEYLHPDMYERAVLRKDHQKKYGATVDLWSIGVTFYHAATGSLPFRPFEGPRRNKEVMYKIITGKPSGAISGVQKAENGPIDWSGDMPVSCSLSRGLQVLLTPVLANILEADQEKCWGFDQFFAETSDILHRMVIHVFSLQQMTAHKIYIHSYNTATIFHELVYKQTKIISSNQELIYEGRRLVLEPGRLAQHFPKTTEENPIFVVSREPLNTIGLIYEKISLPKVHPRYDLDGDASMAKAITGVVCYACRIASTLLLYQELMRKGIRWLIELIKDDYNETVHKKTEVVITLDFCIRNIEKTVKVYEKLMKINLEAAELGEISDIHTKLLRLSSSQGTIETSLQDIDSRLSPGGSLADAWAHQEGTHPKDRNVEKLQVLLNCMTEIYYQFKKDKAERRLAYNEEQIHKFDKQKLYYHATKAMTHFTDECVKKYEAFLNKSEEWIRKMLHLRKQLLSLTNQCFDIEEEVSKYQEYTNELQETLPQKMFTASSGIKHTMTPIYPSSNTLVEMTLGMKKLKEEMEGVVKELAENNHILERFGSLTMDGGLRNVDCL
In short: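 Caliper LabChip mobility-shift readout of substrate and product after 90 min of TBK1 reaction at 25° C and stop-buffer addition. Compounds tested in 1:4 serial dilution over 10 points from 30 uM final at 1% DMSO; staurosporine 10 uM final defines full inhibition.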

IKKε = molecular target: T2, IKKε (Homo sapiens, UniProt Q14164); test: IKKe Biochemical Assay; conditions: read-out: IKKε IC50
T2 sequence (Q14164 1-716): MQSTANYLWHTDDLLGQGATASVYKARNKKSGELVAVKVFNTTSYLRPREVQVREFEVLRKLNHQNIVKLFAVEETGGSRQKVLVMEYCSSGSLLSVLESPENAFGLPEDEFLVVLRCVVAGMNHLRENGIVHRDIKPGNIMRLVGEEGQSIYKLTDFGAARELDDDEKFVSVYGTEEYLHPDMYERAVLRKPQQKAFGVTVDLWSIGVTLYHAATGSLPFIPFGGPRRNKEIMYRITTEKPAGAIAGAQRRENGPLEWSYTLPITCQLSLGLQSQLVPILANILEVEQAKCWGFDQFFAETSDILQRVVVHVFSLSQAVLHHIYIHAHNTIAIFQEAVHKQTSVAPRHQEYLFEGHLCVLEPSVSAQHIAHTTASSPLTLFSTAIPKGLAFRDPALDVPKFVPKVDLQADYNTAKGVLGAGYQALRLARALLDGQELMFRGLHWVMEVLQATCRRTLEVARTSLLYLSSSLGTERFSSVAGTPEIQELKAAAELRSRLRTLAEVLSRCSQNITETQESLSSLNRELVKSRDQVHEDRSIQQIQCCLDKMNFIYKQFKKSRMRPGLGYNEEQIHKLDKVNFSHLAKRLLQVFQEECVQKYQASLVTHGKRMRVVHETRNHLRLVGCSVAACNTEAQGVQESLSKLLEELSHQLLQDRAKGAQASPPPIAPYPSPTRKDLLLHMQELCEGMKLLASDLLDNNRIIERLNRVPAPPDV
In short: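 Activity was measured as mobility-shift separation of phosphorylated from unphosphorylated substrate on a LabChip EZ Reader. Compound was titrated from 30 uM final in 10 points, 1:4 steps, with 1% DMSO, and enzyme plus substrate reacted 90 min at 25° C before stop buffer. Control wells held 10 uM staurosporine.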

IC50 [1] [nM]	IC50 (TBK1) [nM]	IC50 (IKKε) [nM]	Structure (SMILES)
100 to 1000	< 100	< 100	COc1cc(C(=O)N2CC[C@@H](N(C)C)C2)ncc1-c1cc2nccc(-c3ccc(N4CC[C@H](F)C4)c(C#N)c3)c2o1 [Compound 450, 5-[2-(6-[[(3R)-3-(dimethylamino)pyrrolidin-1-yl]carbonyl]-4-methoxypyridin-3-yl)furo[3,2-b]pyridin-7-yl]-2-[(3S)-3-fluoropyrrolidin-1-yl]benzonitrile]
< 100	< 100	< 100	COc1cc(C(=O)N(C)C)ncc1-c1cc2nccc(-c3ccc(NC4CCN(C)C4)c(C#N)c3)c2o1 (stereo not drawn) [Compound 434, 5-(7-[3-cyano-4-[(1-methylpyrrolidin-3-yl)amino]phenyl]furo[3,2-b]pyridin-2-yl)-4-methoxy-N,N-dimethylpyridine-2-carboxamide]
100 to 1000	< 100	< 100	CN(CCO)C(=O)c1ccc(-c2cc3ncc(F)c(-c4ccc(OC5CCOCC5)c(C#N)c4)c3o2)c(F)c1 [Compound 302, 4-[7-[3-cyano-4-(oxan-4-yloxy)phenyl]-6-fluorofuro[3,2-b]pyridin-2-yl]-3-fluoro-N-(2-hydroxyethyl)-N-methylbenzamide]
100 to 1000	< 100	< 100	COc1cc(C(=O)NCC(O)CO)ccc1-c1cc2nccc(-c3ccc(NC4CCOCC4)c(C#N)c3)c2o1 (stereo not drawn) [Compound 111, 4-{7-[3-Cyano-4-(tetrahydro-pyran-4-ylamino)-phenyl]-furo[3,2-b]pyridin-2-yl}-N-(2,3-dihydroxy-propyl)-3-methoxy-benzamide]
< 100	< 100	< 100	COc1cc(C(=O)NCC(C)(C)CN(C)C)ccc1-c1cc2nccc(-c3ccc(NC4CCOCC4)c(C#N)c3)c2o1 [Compound 516, 4-{7-[3-Cyano-4-(tetrahydro-pyran-4-ylamino)-phenyl]-furo[3,2-b]pyridin-2-yl}-N-(3-dimethylamino-2,2-dimethyl-propyl)-3-methoxy-benzamide]
100 to 1000	< 100	< 100	N#Cc1cc(-c2ccnc3cc(-c4ccc(C(=O)N[C@H]5CNCC[C@@H]5F)cc4)oc23)ccc1OC1CCOCC1 [Compound 135, 4-{7-[3-Cyano-4-(tetrahydro-pyran-4-yloxy)-phenyl]-furo[3,2-b]pyridin-2-yl}-N-((3S,4S)-4-fluoro-piperidin-3-yl)-benzamide]
< 100	< 100	< 100	COc1cc(C(=O)N2CCCCC2CO)ccc1-c1cc2nccc(-c3ccc(OC4CCOCC4)c(C#N)c3)c2o1 (stereo not drawn) [Compound 10]
100 to 1000	< 100	< 100	COc1cc(C(=O)N[C@H]2C[C@H](CO)N(C)C2)ccc1-c1cc2nccc(-c3ccc(OC4CCOCC4)c(C#N)c3)c2o1 (stereo in doubt) [Compound 350, 4-[7-[3-cyano-4-(oxan-4-yloxy)phenyl]furo[3,2-b]pyridin-2-yl]-N-[(3S,5R)-5-(hydroxymethyl)-1-methylpyrrolidin-3-yl]-3-methoxybenzamide]
< 100	< 100	< 100	COc1cc(C(=O)N2CCN(CCO)CC2)ccc1-c1cc2nccc(-c3ccc(OC4CCOCC4)c(C#N)c3)c2o1 [Compound 13, 5-(2-{4-[4-(2-Hydroxy-ethyl)-piperazine-1-carbonyl]-2-methoxy-phenyl}-furo[3,2-b]pyridin-7-yl)-2-(tetrahydro-pyran-4-yloxy)-benzonitrile]
< 100	< 100	< 100	COc1cc(C(=O)NC(C)(C)CCN(C)C)cnc1-c1cc2nccc(-c3ccc(NC4CCOCC4)c(C#N)c3)c2o1 [Compound 422, 6-(7-[3-cyano-4-[(oxan-4-yl)amino]phenyl]furo[3,2-b]pyridin-2-yl)-N-[4-(dimethylamino)-2-methylbutan-2-yl]-5-methoxypyridine-3-carboxamide]
100 to 1000	< 100	< 100	COc1cc(C(=O)NC2C3COCC32)ccc1-c1cc2nccc(-c3ccc(OC4CCOCC4)c(C#N)c3)c2o1 (stereo not drawn) [Compound 65, 4-{7-[3-Cyano-4-(tetrahydro-pyran-4-yloxy)-phenyl]-furo[3,2-b]pyridin-2-yl}-3-methoxy-N-(3-oxa-bicyclo[3.1.0]hex-6-yl)-benzamide]
100 to 1000	< 100	< 100	COc1cc(C(=O)NCCN2CCC2)ccc1-c1cc2nccc(-c3ccc(OC4CCOCC4)c(C#N)c3)c2o1 [Compound 477, N-(2-Azetidin-1-yl-ethyl)-4-{7-[3-cyano-4-(tetrahydro-pyran-4-yloxy)-phenyl]-furo[3,2-b]pyridin-2-yl}-3-methoxy-benzamide]
100 to 1000	< 100	< 100	COc1cc(C(=O)NCC(C)(C)N(C)C)ccc1-c1cc2nccc(-c3ccc(OC4CCOCC4)c(C#N)c3)c2o1 [Compound 500, 4-{7-[3-Cyano-4-(tetrahydro-pyran-4-yloxy)-phenyl]-furo[3,2-b]pyridin-2-yl}-N-(2-dimethylamino-2-methyl-propyl)-3-methoxy-benzamide]
100 to 1000	< 100	< 100	COc1cc(C(=O)N(C)C)ccc1-c1cc2nccc(-c3ccc(NC4CCOC4)c(C#N)c3)c2o1 (stereo not drawn) [Compound 7]
100 to 1000	< 100	< 100	COc1cc(C(=O)NC2CC(O)C2)ccc1-c1cc2nccc(-c3ccc(NC4CCOCC4)c(C#N)c3)c2o1 (stereo not drawn) [Compound 122, 4-{7-[3-Cyano-4-(tetrahydro-pyran-4-ylamino)-phenyl]-furo[3,2-b]pyridin-2-yl}-N-(3-hydroxy-cyclobutyl)-3-methoxy-benzamide]
100 to 1000	< 100	< 100	CN(C)C(=O)c1ccc(-c2cc3nccc(-c4ccc(N5CC[C@H](F)C5)c(C#N)c4)c3o2)cc1 [Compound 106, 4-{7-[3-Cyano-4-((S)-3-fluoro-pyrrolidin-1-yl)-phenyl]-furo[3,2-b]pyridin-2-yl}-N,N-dimethyl-benzamide]
100 to 1000	< 100	< 100	COc1cc(C(=O)N2CC3CCC(O)C3C2)ccc1-c1cc2nccc(-c3ccc(OC4CCOCC4)c(C#N)c3)c2o1 (stereo not drawn) [Compound 18, 5-{2-[4-(4-Hydroxy-hexahydro-cyclopenta[c]pyrrole-2-carbonyl)-2-methoxy-phenyl]-furo[3,2-b]pyridin-7-yl}-2-(tetrahydro-pyran-4-yloxy)-benzonitrile]
100 to 1000	< 100	< 100	COc1cc(C(=O)N2CCCCC2)ccc1-c1cc2nccc(-c3ccc(OC4CCOCC4)c(C#N)c3)c2o1 [Compound 27, 5-{2-[2-Methoxy-4-(piperidine-1-carbonyl)-phenyl]-furo[3,2-b]pyridin-7-yl}-2-(tetrahydro-pyran-4-yloxy)-benzonitrile]

Structure (SMILES)	IC50 [1] [nM]	IC50 (TBK1) [nM]	IC50 (IKKε) [nM]
COc1cc(C(=O)N2C3COCC2CC(O)C3)cnc1-c1cc2nccc(-c3ccc(OC4CCOCC4)c(C#N)c3)c2o1 (stereo not drawn) [Compound 412, 5-[2-[5-([7-hydroxy-3-oxa-9-azabicyclo[3.3.1]nonan-9-yl]carbonyl)-3-methoxypyridin-2-yl]furo[3,2-b]pyridin-7-yl]-2-(oxan-4-yloxy)benzonitrile]	< 100	< 100	< 100
